US20100222349A1, “QUINOLINE DERIVATIVES USED TO TREAT INFLAMMATORY AND ALLERGIC DISEASES” (Glaxo Group Limited, priority 2007, published 2010)

Tests used:
human H1 receptor [1] = molecular target: T1, human H1 receptor (Homo sapiens, UniProt P35367); test: Histamine H1 functional antagonist assay: determination of antagonist pA2 (FLIPR); type: cell-based; details: histamine H1 receptor expressing CHO cells, histamine concentration response curves
T1 construct: expressed in transfected cells
Experimental: (§1) The human H1 receptor is cloned using known procedures described in the literature [Biochem. Biophys. Res. Commun., 201(2):894 (1994)]. Chinese hamster ovary (CHO) cells stably expressing the human H1 receptor are generated according to known procedures described in the literature [Br. J. Pharmacol., 117(6):1071 (1996)].
The histamine H1 receptor expressing CHO cells are seeded into non-coated black-walled clear bottom 96-well tissue culture plates as described above.
Following overnight culture, growth medium is removed from each well, washed with 200 μl PBS and is replaced with 50 μl loading dye (250 μM Brilliant Black, 1 μM Fluo-4 diluted in Tyrodes buffer+probenecid (145 mM NaCl, 2.5 mM KCl, 10 mM HEPES, 10 mM D-glucose, 1.2 mM MgCl2, 1.5 mM CaCl2, 2.5 mM probenecid, pH adjusted to 7.40 with NaOH 1.0 M)). Cells are incubated for 45 min at 37° C. The loading buffer is removed and the cells are washed as above, and 90 μl of Tyrodes buffer+probenecid is added to each well. 10 μl of test compound, diluted to the required concentration in Tyrodes buffer+probenecid (or 10 μl Tyrodes buffer+probenecid as a control) is added to each well and the plate is incubated for 30 min at 37° C., 5% CO2.
The plates are then placed into a FLIPR™ (Molecular Devices, UK) to monitor cell fluorescence (λex=488 nm, λEM=540 nm) in the manner described in Sullivan et al., (In: Lambert DG (ed.), Calcium Signaling Protocols, New Jersey: Humana Press, 1999, 125-136) before and after the addition of 50 μl histamine over a concentration range of 1 mM-0.1 nM. The resultant concentration response curves are analysed by non-linear regression using a standard four parameter logistic equation to determine the histamine EC50, the concentration of histamine required to produce a response of 50% of the maximum response to histamine. The antagonist pA2 is calculated using the following standard equation: pA2=[…] where DR=dose ratio, defined as EC50antagonist-treated/EC50control and [B]=concentration of antagonist.

human H1 receptor [2] = molecular target: T1, human H1 receptor; test: Histamine H1 functional antagonist assay: determination of functional pKi values (FLIPR); type: cell-based; details: CHO cells expressing human H1 receptor, histamine at EC80, read-out: average pKi (pKb) at H1 (converted)
In short: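 CHO cells stably expressing human H1 receptor, loaded with Fluo-4 for 60 min, then preincubated with compound 30 min at 37° C in Tyrodes buffer with probenecid, pH 7.40. Histamine added at EC80; suppression of calcium fluorescence on FLIPR gives functional affinity from concentration-effect curves.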

histamine H3 receptor = molecular target: T2, histamine H3 receptor (Homo sapiens, UniProt Q9Y5N1); test: Histamine H3 functional antagonist assay (GTPγS, membranes); type: biochemical; details: CHO K1 membranes, [35S]-GTPγS, histamine at EC80; read-out: average pKi (pKb) at H3 (converted)
T2 construct: expressed in transfected cells; host or cells: CHO K1 cells with pSwitch/pGeneH3 (GeneSwitch, mifepristone-induced), clone 3H3; membrane preparation
In short: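 Membranes came from CHO K1 cells with mifepristone-inducible (10 nM, 18 h) human H3 receptor expression, clone 3H3. Test compounds in DMSO were combined with WGA polystyrene LeadSeeker SPA beads, membranes and GDP.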

human H1 receptor [3] = molecular target: T1, human H1 receptor; test: Histamine H1 functional antagonist assay: antagonist duration; type: cell-based; details: at one or more time points, after washout
Experimental: as §1
To determine the antagonist duration, cells are cultured overnight in non-coated black-walled clear bottom 96-well tissue culture plates, are washed with PBS and are incubated with a concentration of antagonist chosen to give an approximate DR in the range 30-300. Following the 30 min antagonist incubation period, the cells are washed two or three times with 200 μl of PBS and then 100 μl Tyrodes buffer is added to each well to initiate antagonist dissociation. Following incubation for predetermined times, typically 30-270 min at 37° C., the cells are then washed again with 200 μl PBS and are incubated with 100 μl Tyrodes buffer containing Brilliant Black, probenecid and Fluo-4 for 45 min at 37° C., as described above. After this period, the cells are challenged with histamine in the FLIPR™ as described above. The dose ratio at each time point is used to determine the fractional H1 receptor occupancy by the following equation: fractional receptor occupancy=(DR-1)/DR. The decrease in receptor occupancy over time approximates to a straight line and is analysed by linear regression. The slope of this straight line fit is used as an index of the dissociation rate of the antagonist. The dose ratios for antagonist treated cells and for antagonist treated and washed cells at each time point are used to calculate a relative dose ratio (rel DR) which is also used as an index of antagonist duration. Antagonists with long duration of action produce rel DR values close to 1, and antagonists with short duration of action produce rel DR values that approaches the dose ratio value obtained for antagonist treatment alone.

T2 sequence (Q9Y5N1 whole entry, species assumed): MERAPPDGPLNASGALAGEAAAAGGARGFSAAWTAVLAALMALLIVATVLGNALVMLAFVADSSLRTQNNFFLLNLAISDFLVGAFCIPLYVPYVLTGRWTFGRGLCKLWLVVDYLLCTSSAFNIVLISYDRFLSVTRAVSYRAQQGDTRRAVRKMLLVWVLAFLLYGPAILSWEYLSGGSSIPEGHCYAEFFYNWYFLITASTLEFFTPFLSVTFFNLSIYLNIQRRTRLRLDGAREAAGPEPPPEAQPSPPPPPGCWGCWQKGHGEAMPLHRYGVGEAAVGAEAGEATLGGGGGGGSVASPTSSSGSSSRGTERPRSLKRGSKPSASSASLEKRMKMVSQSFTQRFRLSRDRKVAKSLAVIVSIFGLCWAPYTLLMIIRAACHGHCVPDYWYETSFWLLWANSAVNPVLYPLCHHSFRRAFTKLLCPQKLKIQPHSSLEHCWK
T1 sequence (P35367 whole entry): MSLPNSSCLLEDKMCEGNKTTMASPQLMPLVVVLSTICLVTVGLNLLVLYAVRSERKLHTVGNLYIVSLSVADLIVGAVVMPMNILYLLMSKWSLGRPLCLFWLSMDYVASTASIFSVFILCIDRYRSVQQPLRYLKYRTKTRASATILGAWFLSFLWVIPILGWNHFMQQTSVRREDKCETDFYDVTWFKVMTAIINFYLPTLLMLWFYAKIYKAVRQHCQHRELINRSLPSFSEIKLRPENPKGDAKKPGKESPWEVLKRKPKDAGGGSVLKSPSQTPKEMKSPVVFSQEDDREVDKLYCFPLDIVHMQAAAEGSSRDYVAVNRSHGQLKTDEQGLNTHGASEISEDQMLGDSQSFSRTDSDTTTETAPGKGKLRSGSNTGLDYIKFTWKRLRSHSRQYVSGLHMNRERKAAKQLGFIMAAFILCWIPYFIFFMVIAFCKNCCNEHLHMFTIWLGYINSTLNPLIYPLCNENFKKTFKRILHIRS

In the case of `CCCCc1cc(O[C@H]2CCN(CCC(=O)N3CCCCC3)C2)c2ncccc2c1` [Example 38, 6-butyl-8-({(3S)-1-[3-oxo-3-(1-piperidinyl)propyl]-3-pyrrolidinyl}oxy)quinoline], the Kb (human H1 receptor [1]) is reported as < 100 nM, the Ki (human H1 receptor [2]) is reported as ~1000 nM and the Ki (histamine H3 receptor) is reported as ~100 nM.
In the case of `CCCCc1cc(O[C@H]2CCN(CCC(=O)N(CC)CC)C2)c2ncccc2c1` [Example 40, 3-{(3S)-3-[(6-butyl-8-quinolinyl)oxy]-1-pyrrolidinyl}-N,N-diethylpropanamide], the Kb (human H1 receptor [1]) is reported as < 100 nM, the Ki (human H1 receptor [2]) is reported as ~1000 nM and the Ki (histamine H3 receptor) is reported as > 316 nM.
For `CCCCc1cc(O[C@H]2CCN(CCCC(=O)NC(C)(C)C)C2)c2ncccc2c1` [Example 41, 4-{(3S)-3-[(6-butyl-8-quinolinyl)oxy]-1-pyrrolidinyl}-N-(1,1-dimethylethyl) butanamide], the Kb (human H1 receptor [1]) was < 100 nM, the Ki (human H1 receptor [2]) was < 100 nM and the Ki (histamine H3 receptor) was > 316 nM.
For `CCCCc1cc(OC2CCN(C[C@H]3CC[C@H](C(=O)N(CC)CC)CC3)CC2)c2ncccc2c1` [Example 43, Trans-4-({4-[(6-butyl-8-quinolinyl)oxy]-1-piperidinyl}methyl)-N,N-diethylcyclohexane carboxamide], the “duration of action compared with azelastine” value (human H1 receptor [3]) was “longer duration of action than azelastine”, the Ki (human H1 receptor [2]) was < 10 nM and the Ki (histamine H3 receptor) was > 316 nM.
`CCCCc1cc(OC2CCN(CCCNC(=O)C(C)(C)C)CC2)c2ncccc2c1` [Example 69, N-(3-{4-[(6-butyl-8-quinolinyl)oxy]-1-piperidinyl}propyl)-2,2-dimethyl propanamide] was tested, and the Ki (human H1 receptor [2]) was < 10 nM and the Ki (histamine H3 receptor) was > 316 nM.
With `CCCCc1cc(OC2CCN(CCCNC(=O)CCC)CC2)c2ncccc2c1` [Example 70, N-(3-{4-[(6-butyl-8-quinolinyl)oxy]-1-piperidinyl}propyl) butanamide] the Ki (human H1 receptor [2]) was < 10 nM and the Ki (histamine H3 receptor) was > 316 nM.
`CCCCc1cc(OC2CCN(CCNC(=O)C(C)C)CC2)c2ncccc2c1` [Example 71, N-(2-{4-[(6-butyl-8-quinolinyl)oxy]-1-piperidinyl}ethyl)-2-methylpropanamide] was tested, and the Ki (human H1 receptor [2]) was < 10 nM and the Ki (histamine H3 receptor) was > 316 nM.
With `CCCCc1cc(OC2CCN(CCNC(=O)CC)CC2)c2ncccc2c1` [Example 73, N-(2-{4-[(6-butyl-8-quinolinyl)oxy]-1-piperidinyl}ethyl) propanamide] the Ki (human H1 receptor [2]) was < 10 nM and the Ki (histamine H3 receptor) was > 316 nM.
`CCCCc1cc(OC2CCN(CCNC(=O)CCC)CC2)c2ncccc2c1` [Example 74, N-(2-{4-[(6-butyl-8-quinolinyl)oxy]-1-piperidinyl}ethyl) butanamide] was tested, and the Ki (human H1 receptor [2]) was < 10 nM and the Ki (histamine H3 receptor) was > 316 nM.
`CCCCc1cc(OC2CCN(CCNC(=O)C3CCCCC3)CC2)c2ncccc2c1` [Example 75, N-(2-{4-[(6-butyl-8-quinolinyl)oxy]-1-piperidinyl}ethyl) cyclohexane carboxamide] was tested, and the Ki (human H1 receptor [2]) was < 10 nM and the Ki (histamine H3 receptor) was > 316 nM.
In the case of `CCCCc1cc(OC2CCN(CCCCCNC(=O)C(C)(C)C)CC2)c2ncccc2c1` [Example 76, N-(5-{4-[(6-butyl-8-quinolinyl)oxy]-1-piperidinyl}pentyl)-2,2-dimethyl propanamide], the Ki (human H1 receptor [2]) is reported as < 10 nM and the Ki (histamine H3 receptor) is reported as > 316 nM.
With `CCCCc1cc(OC2CCN(CCCCCNC(=O)CC)CC2)c2ncccc2c1` [Example 77, N-(5-{4-[(6-butyl-8-quinolinyl)oxy]-1-piperidinyl}pentyl) propanamide] the Ki (human H1 receptor [2]) was < 10 nM and the Ki (histamine H3 receptor) was > 316 nM.
`CCCCc1cc(OC2CCN(CCCCCNC(=O)C3CCCCC3)CC2)c2ncccc2c1` [Example 78, N-(5-{4-[(6-butyl-8-quinolinyl)oxy]-1-piperidinyl}pentyl) cyclohexane carboxamide] was tested, and the Ki (human H1 receptor [2]) was < 10 nM and the Ki (histamine H3 receptor) was > 316 nM.
In the case of `CCCCc1cc(OC2CCN(CCCCNC(C)=O)CC2)c2ncccc2c1` [Example 79, N-(4-{4-[(6-Butyl-8-quinolinyl)oxy]-1-piperidinyl}butyl)acetamide], the Ki (human H1 receptor [2]) is reported as < 10 nM and the Ki (histamine H3 receptor) is reported as > 316 nM.
With `CCCCc1cc(OC2CCN(CCNC(=O)CCOC)CC2)c2ncccc2c1` [Example 80, N-(2-{4-[(6-butyl-8-quinolinyl)oxy]-1-piperidinyl}ethyl)-3-(methyloxy) propanamide] the Ki (human H1 receptor [2]) was < 10 nM and the Ki (histamine H3 receptor) was > 316 nM.
With `CCCCc1cc(OC2CCN(CCNC(=O)CCCOC)CC2)c2ncccc2c1` [Example 81, N-(2-{4-[(6-butyl-8-quinolinyl)oxy]-1-piperidinyl}ethyl)-4-(methyloxy) butanamide] the Ki (human H1 receptor [2]) was < 10 nM and the Ki (histamine H3 receptor) was > 316 nM.
For `CCCCc1cc(OC2CCN(CCCNC(=O)CCOC)CC2)c2ncccc2c1` [Example 82, N-(3-{4-[(6-butyl-8-quinolinyl)oxy]-1-piperidinyl}propyl)-3-(methyloxy) propanamide], the Ki (human H1 receptor [2]) was < 10 nM and the Ki (histamine H3 receptor) was > 316 nM.
With `CCCCc1cc(OC2CCN(CCCNC(=O)CCCOC)CC2)c2ncccc2c1` [Example 83, N-(3-{4-[(6-butyl-8-quinolinyl)oxy]-1-piperidinyl}propyl)-4-(methyloxy) butanamide] the Ki (human H1 receptor [2]) was < 100 nM and the Ki (histamine H3 receptor) was > 316 nM.
For `CCCCc1cc(OC2CCN(CCCCNC(=O)CCCOC)CC2)c2ncccc2c1` [Example 84, N-(4-{4-[(6-butyl-8-quinolinyl)oxy]-1-piperidinyl}butyl)-4-(methyloxy) butanamide], the Ki (human H1 receptor [2]) was < 10 nM and the Ki (histamine H3 receptor) was > 316 nM.
`CCCCc1cc(OC2CCN(CCCCNC(=O)CCOC)CC2)c2ncccc2c1` [Example 85, N-(4-{4-[(6-butyl-8-quinolinyl)oxy]-1-piperidinyl}butyl)-3-(methyloxy) propanamide] was tested, and the Ki (human H1 receptor [2]) was < 10 nM and the Ki (histamine H3 receptor) was > 316 nM.
`CCCCc1cc(OC2CCN(CCCNC(=O)CC)CC2)c2ncccc2c1` [Example 86, N-(3-{4-[(6-Butyl-8-quinolinyl)oxy]-1-piperidinyl}propyl)propanamide] was tested, and the Ki (human H1 receptor [2]) was < 10 nM and the Ki (histamine H3 receptor) was > 316 nM.
With `CCCCc1cc(OC2CCN(CCCc3nc(CCC)no3)CC2)c2ncccc2c1` [Example 87, 6-Butyl-8-({1-[3-(3-propyl-1,2,4-oxadiazol-5-yl)propyl]-4-piperidinyl}oxy)quinoline] the Ki (human H1 receptor [2]) was < 10 nM and the Ki (histamine H3 receptor) was > 316 nM.
With `CCCCCc1cc(OC2CCN(CCCC(=O)NC(C)(C)C)CC2)c2ncccc2c1` [Example 88, N-(1,1-dimethylethyl)-4-{4-[(6-pentyl-8-quinolinyl)oxy]-1-piperidinyl}butanamide] the Ki (human H1 receptor [2]) was < 10 nM and the Ki (histamine H3 receptor) was > 316 nM.
For `CCCCCc1cc(OC2CCN(CCCC(=O)N(CC)CC)CC2)c2ncccc2c1` [Example 89, N,N-Diethyl-4-{4-[(6-pentyl-8-quinolinyl)oxy]-1-piperidinyl}butanamide], the Ki (human H1 receptor [2]) was < 100 nM and the Ki (histamine H3 receptor) was > 316 nM.
With `CCCCCc1cc(OC2CCN(CCCNC(=O)CC)CC2)c2ncccc2c1` [Example 90, N-(3-{4-[(6-Pentyl-8-quinolinyl)oxy]-1-piperidinyl}propyl)propanamide] the Ki (human H1 receptor [2]) was < 10 nM and the Ki (histamine H3 receptor) was > 316 nM.
In the case of `CCCCCc1cc(OC2CCN(CCCNC(=O)C(C)(C)C)CC2)c2ncccc2c1` [Example 91, 2,2-Dimethyl-N-(3-{4-[(6-pentyl-8-quinolinyl)oxy]-1-piperidinyl}propyl) propanamide], the Ki (human H1 receptor [2]) is reported as < 10 nM and the Ki (histamine H3 receptor) is reported as > 316 nM.
